According to ChEMBL document CHEMBL1142959, “Semisynthetic approaches to laspartomycin analogues” (2007):
Converted amounts (≈) assume the structure as drawn. Positions of bridges follow the written chain, without caps; N, C: chain ends. Non-standard residues stand in square brackets, D forms with d. Residues, ends and D or L forms follow the SMILES beside them. *: point of attachment. Lauroyl = CCCCCCCCCCCC(=O)*; Pip = O=C(O)[C@@H]1CCCCN1; Dap = NC[C@H](N)C(=O)O

Legend:
Format in all cases: functional
Staphylococcus aureus [1] = assay: Antimicrobial activity against methicillin-sensitive Staphylococcus aureus Smith ATCC 19636 by tube dilution method
Enterococcus faecalis = assay: Antimicrobial activity against vancomycin-sensitive Enterococcus faecalis ATCC 29212 by broth microdilution method
Staphylococcus aureus [2] = assay: Antimicrobial activity against methicillin-resistant Staphylococcus aureus ATCC 43300 by broth microdilution method
Staphylococcus aureus [3] = assay: Antimicrobial activity against methicillin-sensitive Staphylococcus aureus Smith ATCC 19636 by broth microdilution method
[4] = tested on: Staphylococcus epidermidis; assay: Antimicrobial activity against methicillin-resistant Staphylococcus epidermidis ATCC 51625 by broth microdilution method
Enterococcus faecium = assay: Antimicrobial activity against vancomycin/multidrug-resistant Enterococcus faecium ATCC 51559 by broth microdilution method
Staphylococcus aureus [5] = assay: Antimicrobial activity against vancomycin-intermediate Staphylococcus aureus CDC HIP 5836 by broth microdilution method
[6] = Staphylococcus aureus, Smith, read-out: MIC

| Compound | MIC (Staphylococcus aureus [1]; [6]) | also measured |
| --- | --- | --- |
| CCCCCCCCCCCCCCCCS(=O)(=O)N[C@@H](Cc1c[nH]c2ccccc12)C(=O)N[C@H]1CNC(=O)[C@@H]2CCCN2C(=O)[C@H]([C@H](C)CC)NC(=O)[C@H]([C@@H](C)O)NC(=O)CNC(=O)[C@H](CC(=O)O)NC(=O)CNC(=O)[C@H](CC(=O)O)NC(=O)CNC(=O)[C@@H]2CCCCN2C1=O | > 64 µg/mL |  |
| CC[C@@H](C)[C@@H]1NC(=O)[C@H]([C@@H](C)O)NC(=O)CNC(=O)[C@H](CC(=O)O)NC(=O)CNC(=O)C(CC(=O)O)NC(=O)CNC(=O)[C@@H]2CCCCN2C(=O)[C@@H](NC(=O)[C@H](CC(=O)O)NC(=O)CCCCCCCCCCOc2ccccc2)CNC(=O)[C@@H]2CCCN2C1=O (single isomer, unassigned) | > 64 µg/mL |  |
| CCCCCCCCCCCCCCCCS(=O)(=O)N[C@@H](Cc1ccccc1)C(=O)N[C@@H](CC(=O)O)C(=O)N[C@H]1CNC(=O)[C@@H]2CCCN2C(=O)[C@H]([C@H](C)CC)NC(=O)[C@H]([C@@H](C)O)NC(=O)CNC(=O)[C@H](CC(=O)O)NC(=O)CNC(=O)[C@H](CC(=O)O)NC(=O)CNC(=O)[C@@H]2CCCCN2C1=O | 4 µg/mL (≈ 2.74 µM) | MIC (Enterococcus faecalis): 2 µg/mL (≈ 1.37 µM); MIC (Staphylococcus aureus [2]): 8 µg/mL (≈ 5.48 µM); MIC (Staphylococcus aureus [3]): > 64 µg/mL; MIC [4]: 4 µg/mL (≈ 2.74 µM); MIC (Enterococcus faecium): 4 µg/mL (≈ 2.74 µM); MIC (Staphylococcus aureus [5]): > 64 µg/mL |
| CCCCCCCCCCCCCCC(=O)N[C@@H](Cc1c[nH]c2ccccc12)C(=O)N[C@H](CC(=O)O)C(=O)N[C@H]1CNC(=O)[C@@H]2CCCN2C(=O)[C@H]([C@H](C)CC)NC(=O)[C@H]([C@@H](C)O)NC(=O)CNC(=O)[C@H](CC(=O)O)NC(=O)CNC(=O)C(CC(=O)O)NC(=O)CNC(=O)[C@@H]2CCCCN2C1=O (single isomer, unassigned) | > 64 µg/mL |  |
| CCCCCCCCCCCCCCC(=O)N[C@@H](Cc1c[nH]c2ccccc12)C(=O)N[C@@H](CC(=O)O)C(=O)N[C@H]1CNC(=O)[C@@H]2CCCN2C(=O)[C@H]([C@H](C)CC)NC(=O)[C@H]([C@@H](C)O)NC(=O)CNC(=O)[C@H](CC(=O)O)NC(=O)CNC(=O)[C@H](CC(=O)O)NC(=O)CNC(=O)[C@@H]2CCCCN2C1=O |  | MIC (Staphylococcus aureus [1]): 16 µg/mL (≈ 11.1 µM) |
| CCCCCCCCCC(=O)N[C@@H](CC(=O)O)C(=O)N[C@H]1CNC(=O)[C@@H]2CCCN2C(=O)[C@H]([C@H](C)CC)NC(=O)[C@H]([C@@H](C)O)NC(=O)CNC(=O)[C@H](CC(=O)O)NC(=O)CNC(=O)C(CC(=O)O)NC(=O)CNC(=O)[C@@H]2CCCCN2C1=O (single isomer, unassigned) | > 64 µg/mL |  |
| CCCCCCCCCCCCCCC(=O)NCC(=O)N[C@@H](CC(=O)O)C(=O)N[C@H]1CNC(=O)[C@@H]2CCCN2C(=O)[C@H]([C@H](C)CC)NC(=O)[C@H]([C@@H](C)O)NC(=O)CNC(=O)[C@H](CC(=O)O)NC(=O)CNC(=O)C(CC(=O)O)NC(=O)CNC(=O)[C@@H]2CCCCN2C1=O (single isomer, unassigned) | > 64 µg/mL |  |
| CCCCCCCCCCCCCCC(=O)N[C@@H](CC(=O)O)C(=O)N[C@H]1CNC(=O)[C@@H]2CCCN2C(=O)[C@H]([C@H](C)CC)NC(=O)[C@H]([C@@H](C)O)NC(=O)CNC(=O)[C@H](CC(=O)O)NC(=O)CNC(=O)[C@H](CC(=O)O)NC(=O)CNC(=O)[C@@H]2CCCCN2C1=O |  | MIC (Staphylococcus aureus [1]): >128 µg/mL |
| CCCCCCCCCCCCCCC(=O)N[C@@H](CC(=O)O)C(=O)N[C@H]1CNC(=O)[C@@H]2CCCN2C(=O)[C@H]([C@H](C)CC)NC(=O)[C@H]([C@@H](C)O)NC(=O)CNC(=O)[C@H](CC(=O)O)NC(=O)CNC(=O)C(CC(=O)O)NC(=O)CNC(=O)[C@@H]2CCCCN2C1=O (single isomer, unassigned) |  | MIC (Enterococcus faecalis): 4 µg/mL (≈ 3.2 µM); MIC (Staphylococcus aureus [2]): 4 µg/mL (≈ 3.2 µM); MIC (Staphylococcus aureus [1]): 2 µg/mL (≈ 1.6 µM); MIC (Staphylococcus aureus [3]): 4 µg/mL (≈ 3.2 µM); MIC [4]: 8 µg/mL (≈ 6.4 µM); MIC (Enterococcus faecium): 4 µg/mL (≈ 3.2 µM); MIC (Staphylococcus aureus [5]): 16 µg/mL (≈ 12.8 µM) |
| CCCCCCCCCCCCCCC(=O)N[C@H]1CNC(=O)[C@@H]2CCCN2C(=O)[C@H]([C@H](C)CC)NC(=O)[C@H]([C@@H](C)O)NC(=O)CNC(=O)[C@H](CC(=O)O)NC(=O)CNC(=O)C(CC(=O)O)NC(=O)CNC(=O)[C@@H]2CCCCN2C1=O (single isomer, unassigned) | > 64 µg/mL |  |
| CCCCCCCCCC(=O)N[C@@H](Cc1c[nH]c2ccccc12)C(=O)N[C@@H](CC(=O)O)C(=O)N[C@H]1CNC(=O)[C@@H]2CCCN2C(=O)[C@H]([C@H](C)CC)NC(=O)[C@H]([C@@H](C)O)NC(=O)CNC(=O)[C@H](CC(=O)O)NC(=O)CNC(=O)[C@H](CC(=O)O)NC(=O)CNC(=O)[C@@H]2CCCCN2C1=O | > 64 µg/mL |  |
| CCCCCCCCCCCCCCC(=O)N[C@H](Cc1ccccc1)C(=O)N[C@@H](CC(=O)O)C(=O)N[C@H]1CNC(=O)[C@@H]2CCCN2C(=O)[C@H]([C@H](C)CC)NC(=O)[C@H]([C@@H](C)O)NC(=O)CNC(=O)[C@H](CC(=O)O)NC(=O)CNC(=O)C(CC(=O)O)NC(=O)CNC(=O)[C@@H]2CCCCN2C1=O (single isomer, unassigned) | 4 µg/mL (≈ 2.86 µM) |  |

Second part, led by results:

| MIC (Staphylococcus aureus [1]; [6]) | Compound | also measured |
| --- | --- | --- |
| > 64 µg/mL | CCCCCCCCCCCCCCC(=O)N[C@@H](C)C(=O)N[C@@H](CC(=O)O)C(=O)N[C@H]1CNC(=O)[C@@H]2CCCN2C(=O)[C@H]([C@H](C)CC)NC(=O)[C@H]([C@@H](C)O)NC(=O)CNC(=O)[C@H](CC(=O)O)NC(=O)CNC(=O)C(CC(=O)O)NC(=O)CNC(=O)[C@@H]2CCCCN2C1=O (single isomer, unassigned) |  |
| 16 µg/mL (≈ 12.7 µM) | CCCCCCCCCCCCS(=O)(=O)N[C@@H](CC(N)=O)C(=O)N[C@H]1CNC(=O)[C@@H]2CCCN2C(=O)[C@H]([C@H](C)CC)NC(=O)[C@H]([C@@H](C)O)NC(=O)CNC(=O)[C@H](CC(=O)O)NC(=O)CNC(=O)[C@H](CC(=O)O)NC(=O)CNC(=O)[C@@H]2CCCCN2C1=O |  |
| 4 µg/mL (≈ 2.67 µM) | CCCCCCCCCCCCCCCCS(=O)(=O)N[C@@H](Cc1c[nH]c2ccccc12)C(=O)N[C@@H](CC(=O)O)C(=O)N[C@H]1CNC(=O)[C@@H]2CCCN2C(=O)[C@H]([C@H](C)CC)NC(=O)[C@H]([C@@H](C)O)NC(=O)CNC(=O)[C@H](CC(=O)O)NC(=O)CNC(=O)[C@H](CC(=O)O)NC(=O)CNC(=O)[C@@H]2CCCCN2C1=O |  |
| 8 µg/mL (≈ 5.57 µM) | CCCCCCCCCCCCCCC(=O)N[C@@H](Cc1c[nH]c2ccccc12)C(=O)N[C@@H](CC(=O)O)C(=O)N[C@H]1CNC(=O)[C@@H]2CCCN2C(=O)[C@H]([C@H](C)CC)NC(=O)[C@H]([C@@H](C)O)NC(=O)CNC(=O)[C@H](CC(=O)O)NC(=O)CNC(=O)C(CC(=O)O)NC(=O)CNC(=O)[C@@H]2CCCCN2C1=O (single isomer, unassigned) |  |
| 2 µg/mL (≈ 1.6 µM) | CC[C@@H](C)[C@@H]1NC(=O)[C@H]([C@@H](C)O)NC(=O)CNC(=O)[C@H](CC(=O)O)NC(=O)CNC(=O)[C@H](CC(=O)O)NC(=O)CNC(=O)[C@@H]2CCCCN2C(=O)[C@@H](NC(=O)[C@H](CC(=O)O)NC(=O)/C=C/CCCCCCCCCC(C)C)CNC(=O)[C@@H]2CCCN2C1=O [LASPARTOMYCIN C] |  |
| 2 µg/mL (≈ 1.55 µM) | CCCCCCCCCCCCCCCCNC(=O)N[C@@H](CC(N)=O)C(=O)N[C@H]1CNC(=O)[C@@H]2CCCN2C(=O)[C@H]([C@H](C)CC)NC(=O)[C@H]([C@@H](C)O)NC(=O)CNC(=O)[C@H](CC(=O)O)NC(=O)CNC(=O)[C@H](CC(=O)O)NC(=O)CNC(=O)[C@@H]2CCCCN2C1=O |  |
| 64 µg/mL (≈ 50.7 µM) | CCCCCCCCCCCCCCC(=O)N[C@@H](CCC(=O)O)C(=O)N[C@H]1CNC(=O)[C@@H]2CCCN2C(=O)[C@H]([C@H](C)CC)NC(=O)[C@H]([C@@H](C)O)NC(=O)CNC(=O)[C@H](CC(=O)O)NC(=O)CNC(=O)C(CC(=O)O)NC(=O)CNC(=O)[C@@H]2CCCCN2C1=O (single isomer, unassigned) |  |
| 8 µg/mL (≈ 6.47 µM) | CCCCCCCCCCCCOC(=O)N[C@@H](CC(N)=O)C(=O)N[C@H]1CNC(=O)[C@@H]2CCCN2C(=O)[C@H]([C@H](C)CC)NC(=O)[C@H]([C@@H](C)O)NC(=O)CNC(=O)[C@H](CC(=O)O)NC(=O)CNC(=O)[C@H](CC(=O)O)NC(=O)CNC(=O)[C@@H]2CCCCN2C1=O |  |
| 1 µg/mL (≈ 0.788 µM) | CCCCCCCCCCc1ccc(C(=O)N[C@@H](CC(=O)O)C(=O)N[C@H]2CNC(=O)[C@@H]3CCCN3C(=O)[C@H]([C@H](C)CC)NC(=O)[C@H]([C@@H](C)O)NC(=O)CNC(=O)[C@H](CC(=O)O)NC(=O)CNC(=O)C(CC(=O)O)NC(=O)CNC(=O)[C@@H]3CCCCN3C2=O)cc1 (single isomer, unassigned) |  |
| 16 µg/mL (≈ 11.6 µM) | CCCCCCCCCCCCCCC(=O)N[C@@H](CCCCN)C(=O)N[C@@H](CC(=O)O)C(=O)N[C@H]1CNC(=O)[C@@H]2CCCN2C(=O)[C@H]([C@H](C)CC)NC(=O)[C@H]([C@@H](C)O)NC(=O)CNC(=O)[C@H](CC(=O)O)NC(=O)CNC(=O)C(CC(=O)O)NC(=O)CNC(=O)[C@@H]2CCCCN2C1=O (single isomer, unassigned) |  |
| 2 µg/mL (≈ 1.54 µM) | CCCCCCCCCCCCc1ccc(C(=O)N[C@@H](CC(=O)O)C(=O)N[C@H]2CNC(=O)[C@@H]3CCCN3C(=O)[C@H]([C@H](C)CC)NC(=O)[C@H]([C@@H](C)O)NC(=O)CNC(=O)[C@H](CC(=O)O)NC(=O)CNC(=O)C(CC(=O)O)NC(=O)CNC(=O)[C@@H]3CCCCN3C2=O)cc1 (single isomer, unassigned) |  |
| 8 µg/mL (≈ 5.74 µM) | CCCCCCCCCCCC(=O)N[C@@H](Cc1c[nH]c2ccccc12)C(=O)N[C@@H](CC(N)=O)C(=O)N[C@H]1CNC(=O)[C@@H]2CCCN2C(=O)[C@H]([C@@H](C)CC)NC(=O)[C@H]([C@@H](C)O)NC(=O)CNC(=O)[C@H](CC(=O)O)NC(=O)CNC(=O)[C@H](CC(=O)O)NC(=O)CNC(=O)[C@@H]2CCCCN2C1=O (Lauroyl-WN[Dap][Pip]GDGDGTIP; lactam 3-C) |  |
